Columns and labels:
Type in all cases: physicochemical
[1] = Stability test in thermostated heaters at 40° C. and 75% R.H., active ingredient %; settings: heat-sealed aluminium/aluminium bags
Experimental: (§1) In the following Tables 2-13, the percentage values are repotted which were obtained in the stability tests carried out on the products of examples 1-6. The stability tests were carried out in thermostated heaters at 40° C. and 75% R.H (tables 2-7) as well as 25° C. and 60% R.H. (tables 8-13), preserving the samples in heat-sealed aluminium/aluminium bags according to the following criteria: the active ingredient % was determined for every sampling point taken under consideration.

[2] = Degradation of the active stereoisomer S,S at 25° C. and 65% R.H.
Experimental: (§2) In the following Tables 14-25, the percentage values are reported of the degradation of the active stereoisomer S,S calculated at 40° C. and 75% R.H. (Tables 14-19) and at 25° C. and 65% R.H.

[3] = Stability test in thermostated heaters at 25° C. and 60% R.H., active ingredient %; settings: heat-sealed aluminium/aluminium bags
Experimental: as §1

[4] = Moisture % K.F. of the stability samples; settings: sample used in the stability test
Experimental: as §1, with “the active ingredient % was determined for every sampling point taken under consideration.” left out

[5] = Degradation of the active stereoisomer S,S at 40° C. and 75% R.H.
Experimental: as §2

SMILES | stability test percentage value (active ingredient %), 30 days [1] | stability test percentage value (active ingredient %), 60 days [1] | stability test percentage value (active ingredient %), 90 days [1] | stability test percentage value (active ingredient %), 120 days [1] | stability test percentage value (active ingredient %), 180 days [1] | percentage of the active S,S stereoisomer remaining ([2]; 30 days) | percentage of the active S,S stereoisomer remaining ([2]; 90 days) | percentage of the active S,S stereoisomer remaining ([2]; 180 days) | percentage of the active S,S stereoisomer remaining ([2]; 360 days) | percentage of the active S,S stereoisomer remaining ([2]; 720 days) | percentage of the active S,S stereoisomer remaining ([2]; T = 0) | stability test percentage value (active ingredient %), 30 days [3] | stability test percentage value (active ingredient %), 90 days [3] | stability test percentage value (active ingredient %), 180 days [3] | stability test percentage value (active ingredient %), 360 days [3] | stability test percentage value (active ingredient %), 720 days [3] | Moisture % K.F. [4] | percentage of active S,S stereoisomer remaining ([5]; 30 days) | percentage of active S,S stereoisomer remaining ([5]; 60 days) | percentage of active S,S stereoisomer remaining ([5]; 90 days) | other results
C[S+](CCC(N)C(=O)[O-])C[C@H]1O[C@@H](n2cnc3c(N)ncnc32)[C@H](O)[C@@H]1O.C[S+](CCC(N)C(=O)[O-])C[C@H]1O[C@@H](n2cnc3c(N)ncnc32)[C@H](O)[C@@H]1O.Cl.O=S(=O)([O-])[O-].[Mg+2] (stereo partly drawn) [SAMe•0.5HCl•0.5MgSO4] | 0.48% | 0.78% | 1.54% | 1.98% | 2.78% | 97.8% | 95.8% | 94.3% | 91.6% | 88.2% | 98.9% | 0.31% | 0.46% | 0.77% | 0.94% | 1.19% | 0.82% | 92.8% | 87.8% | 84.6% | percentage of active S,S stereoisomer remaining ([5]; 120 days): 89.6%; percentage of active S,S stereoisomer remaining ([5]; 180 days): 72.6%; percentage of active S,S stereoisomer remaining ([5]; T = 0): 98.9%
C[S+](CCC(N)C(=O)[O-])C[C@H]1O[C@@H](n2cnc3c(N)ncnc32)[C@H](O)[C@@H]1O.O=S(=O)(O)O.O=S(=O)(O)O.O=S(=O)([O-])[O-].[Mg+2] (stereo partly drawn) [SAMe•2.0H2SO4•1.0Mg2SO4•0.4H2O] | 0.33% | 0.44% | 0.61% | 1.02% | 1.59% | 97.3% | 96.4% | 94.1% | 91.3% | 89.8% | 97.5% | 0.14% | 0.28% | 0.45% | 0.69% | 0.92% | 0.34% | 91.3% | 89.4% | 84.1% | percentage of active S,S stereoisomer remaining ([5]; 120 days): 81.3%; percentage of active S,S stereoisomer remaining ([5]; 180 days): 75.8%; percentage of active S,S stereoisomer remaining ([5]; T = 0): 97.5%
C[S+](CCC(N)C(=O)[O-])C[C@H]1O[C@@H](n2cnc3c(N)ncnc32)[C@H](O)[C@@H]1O.C[S+](CCC(N)C(=O)[O-])C[C@H]1O[C@@H](n2cnc3c(N)ncnc32)[C@H](O)[C@@H]1O.Cl.[Cl-].[Cl-].[Mg+2] (stereo partly drawn) [SAMe•0.5HCl•0.5MgCl2] | 0.56% | 0.87% | 1.45% | 1.99% | 2.67% | 96.5% | 94.8% | 93.7% | 92.6% | 89.5% | 98.9% | 0.35% | 0.43% | 0.76% | 0.90% | 1.07% | 0.54% | 92.5% | 89.8% | 84.5% | percentage of active S,S stereoisomer remaining ([5]; 120 days): 82.6%; percentage of active S,S stereoisomer remaining ([5]; 180 days): 76.6%; percentage of active S,S stereoisomer remaining ([5]; T = 0): 98.9%
C[S+](CCC(N)C(=O)[O-])C[C@H]1O[C@@H](n2cnc3c(N)ncnc32)[C@H](O)[C@@H]1O.Cl.Cl.O=S(=O)([O-])[O-].[Mg+2] (stereo partly drawn) [SAMe•2.0HCl•1.0MgSO4] | 0.27% | 0.49% | 0.67% | 1.46% | 1.62% | 86.5% | 95.6% | 93.0% | 91.1% | 88.2% | 98.0% | 0.19% | 0.28% | 0.41% | 0.65% | 0.87% | 0.52% | 89.9% | 87.9% | 83.0% | percentage of active S,S stereoisomer remaining ([5]; 120 days): 79.1%; percentage of active S,S stereoisomer remaining ([5]; 180 days): 73.3%; percentage of active S,S stereoisomer remaining ([5]; T = 0): 98.0%
C[S+](CCC(N)C(=O)[O-])C[C@H]1O[C@@H](n2cnc3c(N)ncnc32)[C@H](O)[C@@H]1O.Cl.Cl.[Cl-].[Cl-].[Mg+2] (stereo partly drawn) [SAMe•2.0HCl•1.0MgCl2] | 0.27% | 0.45% | 1.14% | 1.45% | 1.89% | 96.6% | 95.7% | 94.7% | 92.5% | 88.0% | 97.4% | 0.17% | 0.37% | 0.58% | 0.74% | 0.98% | 0.44% | 92.9% | 87.8% | 83.4% | percentage of active S,S stereoisomer remaining ([5]; 120 days): 82.1%; percentage of active S,S stereoisomer remaining ([5]; 180 days): 78.2%; percentage of active S,S stereoisomer remaining ([5]; T = 0): 97.4%
C[S+](CCC(N)C(=O)[O-])C[C@H]1O[C@@H](n2cnc3c(N)ncnc32)[C@H](O)[C@@H]1O.O=S(=O)(O)O.O=S(=O)(O)O.[Ca+2].[Cl-].[Cl-] (stereo partly drawn) [SAMe•2.0H2SO4•1.0CaCl2] | 0.17% | 0.42% | 0.92% | 1.52% | 2.70% | 95.9% | 94.9% | 93.8% | 91.2% | 87.8% | 97.2% | 0.16% | 0.29% | 0.35% | 0.68% | 0.82% | 0.35% | 89.3% | 85.3% | 83.3% | percentage of active S,S stereoisomer remaining ([5]; 120 days): 79.3%; percentage of active S,S stereoisomer remaining ([5]; 180 days): 75.3%; percentage of active S,S stereoisomer remaining ([5]; T = 0): 97.2%

— patent US8258115B2, “Stable salts of S-adenosylmethionine and process for the preparation thereof” (priority 2007, dated 2012)
